The data set is described as follows: Human HepG2 cell viability assay in 384 well format. The format is toxicity, cell-based. Also noted: dose 125 nL, time 70.5 hour; concentration not given beside the values. The settings on record: HepG2 cells, read-out: Inhibition.
In the case of `O=c1c2ccccc2nc2n1C(CSc1ccc(Cl)cc1)CN2` (stereo unspecified), the cytotoxicity at 70.5 h stood at 2.49%. The same measure for `COC(=O)c1ccc(Cn2nc(C)cc2C)cc1`: 12.9%; for `Cc1cccc(CNC(=O)CC2CCN(Cc3ccccn3)CC2)n1`: -1.17%. With `Cn1cc(CN2CCCCC2c2ccc(-c3cccc(F)c3)nc2)cn1` (stereo unspecified), the cytotoxicity at 70.5 h is -1.71%.

Turning to `Cc1cc(C(=O)N2CCC(O)(Cn3ccc4ccncc43)CC2)on1`, the cytotoxicity at 70.5 h is 17.8%. Regarding `Cc1cc2ccncc2n1CC1(O)CCN(C(=O)c2ccncc2)CC1`, the cytotoxicity at 70.5 h was -1.76%. As for `O=C(NCc1ccccc1)NCc1nc(-c2ccncc2)n[nH]1`, the cytotoxicity at 70.5 h is -3.14%. The same measure for `CN1C[C@@H](C(=O)NC(C)(C)C)[C@@]2(CCc3ccccc3C(=O)N2)C1`: 0.823%; for `CN1C[C@@H](C(=O)NCC(F)(F)F)[C@@]2(CCc3ccccc3C(=O)N2)C1`: 3.97%; for `CS(=O)(=O)NC1(CCc2ccc(NC(=O)C3CC3)nc2)CCCCC1`: 15%. To `Cc1csc2c(C3CCCN(C(=O)Cn4cncn4)C3)nc(C)n12` (stereo unspecified) belongs -1.76%; to `CC(C(N)=O)n1nc(-c2cccs2)cc(N)c1=O` (stereo unspecified), -3.21%. Take `CC(C(=O)NC1CC1)n1nc(-c2cccs2)cc(N)c1=O` (stereo unspecified): the cytotoxicity at 70.5 h is 6.89%. With `Nc1nc(SCc2ccc3c(c2)OCO3)ns1`, the cytotoxicity at 70.5 h was -0.0923%.

For the compound `O=C(Cn1cnc2cc3c(cc21)OCCCO3)NCCc1ccccc1`, the cytotoxicity at 70.5 h was 0.395%. For the compound `CC(C)N1CCCC1c1nc(N(C)C)ncc1I` (stereo unspecified), the cytotoxicity at 70.5 h is -4.13%. As for `Nc1nccnc1C1CN(C(=O)COc2cccnc2)CCO1` (stereo unspecified), the cytotoxicity at 70.5 h turned out to be 6.29%. On to `COCCN1CCC(C)(c2cc(O)[nH]n2)CC1`, for which the cytotoxicity at 70.5 h is -3.06%. As to `CCNC(=O)C1(Cc2cc(-c3ccccc3)no2)CCCN(C(C)C)C1` (stereo unspecified), the cytotoxicity at 70.5 h was -6.54%. For the compound `O=C(c1ccc2[nH]nnc2c1)N1C[C@H](O)[C@]2(CCCO2)C1`, the cytotoxicity at 70.5 h was -1.24%.

`CO[C@H]1CCN(C(=O)c2ccc3[nH]nnc3c2)C[C@@]12CCCO2`: the cytotoxicity at 70.5 h was -6.86%. Turning to `O=c1c2ccccc2nc2n1C(CSc1cccc(C(F)(F)F)c1)CN2` (stereo unspecified), the cytotoxicity at 70.5 h is -2.38%. For the compound `CN1CCN(c2ncccc2N)CC1`, the cytotoxicity at 70.5 h is -11.7%.

In the case of `COc1nccc(C(F)(F)F)c1C(=O)O`, the cytotoxicity at 70.5 h was 0.892%. Take `COC(=O)Cc1cn2cc(C(F)(F)F)ccc2n1`: the cytotoxicity at 70.5 h is 13.2%. To `CCOC(=O)[C@H]1CNC[C@@H]1C(F)(F)F` belongs -11.1%; to `O=c1[nH]c2ncccc2n1C1CCCCC1`, -6.95%; to `O=C(O)c1cn2cc(C(F)(F)F)ccc2n1`, 2.77%.

With `CC(O)c1cn(Cc2ccc(Cl)cc2)nn1` (stereo unspecified), the cytotoxicity at 70.5 h was -6.41%.

Regarding `CN(C)c1nc2ncc(Cl)cc2cc1C#N`, the cytotoxicity at 70.5 h is 22%.

Turning to `Cc1cc(CN(C)Cc2ncc(C(C)(C)C)o2)no1`, the cytotoxicity at 70.5 h is 18.2%.

Regarding `Cc1ccc(CN(C)Cc2ncc(C(C)(C)C)o2)o1`, the cytotoxicity at 70.5 h worked out at 0.445%. Take `N#CCCN1CCN(S(=O)(=O)c2ccc(Cl)s2)CC1`: the cytotoxicity at 70.5 h is 15.9%. Turning to `O=C(NCc1nnc2n1CCCCC2)N(CC1CCOC1)C1CC1` (stereo unspecified), the cytotoxicity at 70.5 h was 17.7%. To `O=S(=O)(c1ccc(F)cc1Cl)N1CCCC1c1ccncc1` (stereo unspecified) belongs -6.79%; to `COc1c(CNCCc2c[nH]c3cc(F)ccc23)c(C)nn1C`, 3.85%. Take `COc1c(CNCCc2c[nH]c3ccccc23)c(C)nn1C`: the cytotoxicity at 70.5 h is 22.7%. On to `CN(CCCOc1ccccc1)C(=O)c1csc(-c2nnc[nH]2)n1`, for which the cytotoxicity at 70.5 h is -5.84%. With `Cn1cc(C2CCCN2C(=O)c2cnc(C3CC3)s2)cn1` (stereo unspecified), the cytotoxicity at 70.5 h was -5%. On to `Cn1cc(C2CCCN2C(=O)c2cnc(-c3ccccn3)s2)cn1` (stereo unspecified), for which the cytotoxicity at 70.5 h was 3.12%. Turning to `COc1cccc(CN(C)C(=O)c2csc(-c3nnc[nH]3)n2)c1`, the cytotoxicity at 70.5 h is -1.87%. The same measure for `COc1ccc(Br)cc1SCCCS(C)(=O)=O`: -0.49%; for `N#CCCn1cnc2c(F)cc(Br)cc2c1=O`: -3.98%. In the case of `COCCn1cnc2c(F)cc(Br)cc2c1=O`, the cytotoxicity at 70.5 h is -3.14%. As to `CC1c2ccc(F)cc2CCN1C(=O)c1nc(=O)[nH][nH]1` (stereo unspecified), the cytotoxicity at 70.5 h was -6.25%. The same measure for `N#CCCCn1cnc2c(F)cc(Br)cc2c1=O`: -5.69%; for `N#CC(NC(=O)CCCOc1cccnc1)c1ccccc1Cl` (stereo unspecified): -3.34%; for `Cc1cc(CN(C)Cc2ncc(-c3ccccc3)o2)no1`: -0.145%. For `CN(CC1CCOC1)c1ccc(Br)cn1` (stereo unspecified), the cytotoxicity at 70.5 h was determined as 29.9%. Turning to `COc1c(CNCCc2c[nH]c3ccccc23)c(C(C)C)nn1C`, the cytotoxicity at 70.5 h is 2.12%. To `Cc1ccc(-c2nc(CCNCc3ccncc3)co2)cc1` belongs -6.27%.

With `CC(C)N(C)CC(=O)NCc1ccccc1N1CCN(C)CC1`, the cytotoxicity at 70.5 h amounted to 9.3%.

Consider `CCCN(CCn1c(=O)oc2ccccc21)CC1CC1`, for which the cytotoxicity at 70.5 h turned out to be 1.08%.

Take `CCOC(=O)CCN(Cc1cccnc1)C(=O)c1cc(Cl)c[nH]1`: the cytotoxicity at 70.5 h is -6.02%. For the compound `CN1CCN(c2ccccc2CNC(=O)Cc2cccc(F)c2)CC1`, the cytotoxicity at 70.5 h is 9.04%.

As for `CN1CCN(c2ccccc2CNC(=O)CSC(F)(F)F)CC1`, the cytotoxicity at 70.5 h is -6.98%. To `O=C(c1c[nH]nn1)N1CCCC1C1CCCCC1` (stereo unspecified) belongs -8.52%. The same measure for `CCc1nnsc1C(=O)NCCc1nnc2n1CCC2`: -7.69%; for `COC1CCN(c2ccc(NC(=O)C3CC3)cc2C(F)(F)F)CC1`: -4.49%; for `N#CCCN(Cc1cccnc1)C(=O)c1cc(Cl)c[nH]1`: -7.86%.

As to `Cc1cnn(CC(C)NCc2ccc(C#N)cc2F)c1` (stereo unspecified), the cytotoxicity at 70.5 h was -4.59%. Regarding `CC(C)N(C(=O)Cn1nnnc1CCc1ccccc1)C(C)C`, the cytotoxicity at 70.5 h turned out to be 10.7%. The same measure for `O=C(Nc1nncs1)C1CSCN1C(=O)C1CCCC1` (stereo unspecified): -3.88%. In the case of `Brc1csc(-c2noc(C3COCCO3)n2)c1` (stereo unspecified), the cytotoxicity at 70.5 h worked out at 0.61%. The same measure for `Cc1ccc(S(=O)(=O)Nc2ccc(C)c(C(=O)O)c2)s1`: -0.348%; for `COCCNC(=O)N1CCSC2(CCCCC2)C1`: -4.21%; for `Cc1ccc(N2CCC(Nc3ccc4nnc(C)n4n3)CC2)nc1`: -1.55%. For `CC(C)(C)c1nc(CN(Cc2ccccc2Cl)C2CCCC2)no1`, the cytotoxicity at 70.5 h was -2.25%. For `Cc1ncccc1-c1cc2cccnc2n1CCCNC(=O)C1CC1`, the cytotoxicity at 70.5 h is 1.77%. `CCOC(=O)[C@H]1CNC[C@H]1C(=O)OCC`: the cytotoxicity at 70.5 h was -2.7%. To `COCc1nc(-c2ccnc(N3CCNCC3)n2)no1` belongs 2.75%; to `CC(C)Cc1nc(-c2ccnc(N3CCNCC3)n2)no1`, -7.21%; to `O=c1[nH]c2ncccc2n1C1CCNCC1`, -11%. In the case of `COc1ccc(CN(Cc2ccccn2)Cc2cncn2C)cc1`, the cytotoxicity at 70.5 h is -1.37%. Consider `CCn1nc(C)c(CN(CCCOC)Cc2ccccn2)c1C`, for which the cytotoxicity at 70.5 h was 8.89%.

Take `Cc1c[nH]nc1C1CCCN1Cc1ncc[nH]1` (stereo unspecified): the cytotoxicity at 70.5 h is -2.22%.

Source of the values: ChEMBL document CHEMBL3507680, “University of Dundee, Gates Library screen for HepG2 cell viability”.
